From ChEMBL document CHEMBL1759905, “Nonsteroidal 2,3-dihydroquinoline glucocorticoid receptor agonists with reduced PEPCK activation” (Bioorg Med Chem Lett, 2011)

What was measured:
Glucocorticoid receptor [1] = biological target: T1, Glucocorticoid receptor (Homo sapiens, UniProt P04150); assay: Transrepression activity at glucocorticoid receptor in human HepG2 cells assessed as inhibition of TNFalpha/IL1beta-stimulated NFkappaB-dependent E-selectin repression by luciferase reporter gene assay; format: cell-based
T1 sequence (P04150 whole entry): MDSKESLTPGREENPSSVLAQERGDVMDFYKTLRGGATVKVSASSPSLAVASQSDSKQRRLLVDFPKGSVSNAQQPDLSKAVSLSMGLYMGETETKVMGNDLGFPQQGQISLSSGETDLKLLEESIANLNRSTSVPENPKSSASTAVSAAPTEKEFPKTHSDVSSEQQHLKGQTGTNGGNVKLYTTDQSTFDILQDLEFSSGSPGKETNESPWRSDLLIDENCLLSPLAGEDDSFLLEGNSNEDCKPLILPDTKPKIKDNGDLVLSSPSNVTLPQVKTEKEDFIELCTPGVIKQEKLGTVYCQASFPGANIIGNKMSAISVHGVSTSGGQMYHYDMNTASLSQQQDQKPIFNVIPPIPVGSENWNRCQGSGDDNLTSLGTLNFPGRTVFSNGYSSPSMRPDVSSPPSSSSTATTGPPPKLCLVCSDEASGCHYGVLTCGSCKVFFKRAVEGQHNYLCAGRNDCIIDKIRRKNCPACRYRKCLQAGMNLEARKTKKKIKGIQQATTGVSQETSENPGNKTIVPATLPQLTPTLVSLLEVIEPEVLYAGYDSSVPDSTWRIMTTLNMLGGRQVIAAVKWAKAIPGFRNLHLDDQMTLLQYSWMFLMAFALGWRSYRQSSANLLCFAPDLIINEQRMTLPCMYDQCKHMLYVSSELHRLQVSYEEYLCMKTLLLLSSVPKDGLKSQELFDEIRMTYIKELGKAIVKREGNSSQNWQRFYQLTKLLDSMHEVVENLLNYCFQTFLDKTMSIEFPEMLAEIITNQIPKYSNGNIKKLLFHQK

[2] = biological target: T2, Glucocorticoid receptor (Homo sapiens) (UniProt P04150); assay: Transrepression activity at glucocorticoid receptor in human NHDF cells assessed as inhibition of IL-1beta-stimulated AP1 dependent IL-6 repression by ELISA relative to Dexamethasone; format: cell-based; design: concentration or dose not given beside the values
T2 sequence (whole entry): T1 sequence (P04150 whole entry)

Androgen receptor = biological target: T3, Androgen receptor (Homo sapiens, UniProt P10275); assay: Binding affinity to androgen receptor
T3 sequence (P10275 whole entry): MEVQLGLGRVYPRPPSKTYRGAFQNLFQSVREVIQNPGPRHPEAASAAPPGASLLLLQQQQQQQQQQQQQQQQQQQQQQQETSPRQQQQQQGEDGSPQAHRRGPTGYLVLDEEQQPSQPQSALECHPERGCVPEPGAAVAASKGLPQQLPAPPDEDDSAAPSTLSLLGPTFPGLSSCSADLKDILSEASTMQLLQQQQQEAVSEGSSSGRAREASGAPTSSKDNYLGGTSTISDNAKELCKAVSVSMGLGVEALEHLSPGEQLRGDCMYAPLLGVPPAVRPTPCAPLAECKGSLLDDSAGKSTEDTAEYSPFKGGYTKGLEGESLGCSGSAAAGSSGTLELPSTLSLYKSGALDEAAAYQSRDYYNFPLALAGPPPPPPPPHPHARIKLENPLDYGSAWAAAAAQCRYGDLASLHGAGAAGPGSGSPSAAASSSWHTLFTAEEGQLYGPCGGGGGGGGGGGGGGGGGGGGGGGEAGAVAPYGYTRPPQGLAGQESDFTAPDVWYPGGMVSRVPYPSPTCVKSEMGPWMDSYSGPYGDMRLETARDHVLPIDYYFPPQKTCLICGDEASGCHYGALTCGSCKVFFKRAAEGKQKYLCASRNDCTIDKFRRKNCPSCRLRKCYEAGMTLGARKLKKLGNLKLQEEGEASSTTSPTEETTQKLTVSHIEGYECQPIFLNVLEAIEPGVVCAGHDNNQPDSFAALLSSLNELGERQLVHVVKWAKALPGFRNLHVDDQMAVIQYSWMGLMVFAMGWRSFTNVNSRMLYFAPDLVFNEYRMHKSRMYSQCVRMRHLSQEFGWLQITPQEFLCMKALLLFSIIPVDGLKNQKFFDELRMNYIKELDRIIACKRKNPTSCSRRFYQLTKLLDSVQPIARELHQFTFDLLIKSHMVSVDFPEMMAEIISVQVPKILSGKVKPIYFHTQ

Glucocorticoid receptor [3] = biological target: T1, Glucocorticoid receptor; assay: Agonist activity at glucocorticoid receptor in human HepG2 cells co-transfected with GRE assessed as GRE activation by luciferase reporter gene assay; format: functional, cell-based
[4] = biological target: T2, Glucocorticoid receptor (Homo sapiens); assay: Agonist activity at glucocorticoid receptor in human HepG2 cells co-transfected with GRE assessed as GRE activation by luciferase reporter gene assay relative to Dexamethasone; format: functional, cell-based; design: concentration or dose not given beside the values

Row | IC50 (Glucocorticoid receptor [1]) | Activity [2] | Ki (Androgen receptor) | EC50 (Glucocorticoid receptor [3]) | Activity [4] | SMILES
1 | 3.4 nM | 98% | 2800 nM | 3.9 nM | 150% | CO/N=C1/c2c(cc(F)c(-c3cccc4c(C)c[nH]c34)c2F)NC(C)(C)C1O (racemic)
2 | 4 nM | 83% | 90 nM | 3.4 nM | 97% | CC1(C)C/C(=N\OC(C)(C)C)c2c(cc(F)c(-c3cccc4c(Cl)c[nH]c34)c2F)N1
3 | 5.6 nM | 73% | 1000 nM | 5 nM | 97% | Cc1c[nH]c2c(-c3c(F)cc4c(c3F)/C(=N/OC(C)(C)C)CC(C)(C)N4)cccc12
4 | 12 nM | 67% | 290 nM | 19 nM | 130% | Cc1c[nH]c2c(-c3c(F)cc4c(c3F)/C(=N/OC(C)(C)CO)CC(C)(C)N4)cccc12
5 | 4.9 nM | 77% | 1500 nM | 0.6 nM | 138% | Cc1c[nH]c2c(-c3c(F)cc4c(c3F)/C(=N/OC(C)C)CC(C)(C)N4)cccc12
